According to patent US7816349B2, “Substituted pyrrolidinones as inhibitors of 11-beta-hydroxysteroid dehydrogenase 1” (Eli Lilly and Company, priority 2006, dated 2010):

Assays:
[1] = molecular target: recombinant human 11β-HSD type 1 enzyme (Homo sapiens, UniProt P28845); assay: 11β-HSD Type 1 Enzyme Assay (NADPH fluorescence); assay type: biochemical; details: three hour incubation at room temperature, read-out: Human 11-βHSD1 IC50
Method: 11β-HSD Type 1 Enzyme Assay
Human 11β-HSD type 1 activity is measured by assaying NADPH production by fluorescence assay. Solid compounds are dissolved in DMSO to a concentration of 10 mM. Twenty microliters of each are then transferred to a column of a 96-well polypropylene Nunc plate where they are further diluted 50-fold followed by subsequent two-fold titration, ten times across the plate with additional DMSO using a Tecan Genesis 200 automated system. Plates are then transferred to a Tecan Freedom 200 system with an attached Tecan Temo 96-well head and an Ultra 384 plate reader. Reagents are supplied in 96-well polypropylene Nunc plates and are dispensed individually into black 96-well Molecular Devices High Efficiency assay plates (40 μL/well capacity) in the following fashion: 9 μL/well of substrate (2.22 mM NADP, 55.5 μM Cortisol, 10 mM Tris, 0.25% Prionex, 0.1% Triton X100), 3 μL/well of water to compound wells or 3 μL to control and standard wells, 6 μL/well recombinant human 11β-HSD type 1 enzyme, 2 μL/well of compound dilutions. For ultimate calculation of percent inhibition, a series of wells are added that represent assay minimum and maximum: one set containing substrate with 667 μM carbenoxolone (background), and another set containing substrate and enzyme without compound (maximum signal). Final DMSO concentration is 0.5% for all compounds, controls and standards. Plates are then placed on a shaker by the robotic arm of the Tecan for 15 seconds before being covered and stacked for a three hour incubation period at room temperature. Upon completion of this incubation, the Tecan robotic arm removes each plate individually from the stacker and places them in position for addition of 5 μL/well of a 250 μM carbenoxolone solution to stop the enzymatic reaction. Plates are then shaken once more for 15 seconds then placed into an Ultra 384 microplate reader (355EX/460EM) for detection of NADPH fluorescence.

[2] = molecular target: T1, 11β-HSD1 in primary human aortic smooth muscle cells (AoSMC) (Homo sapiens, UniProt P28845); assay: Human Aortic Smooth Muscle Cell Assay (cortisone to cortisol conversion); assay type: cell-based; details: AoSMC induced with hTNFα; cortisol measured after 16 hours with cortisone
T1 construct: containing 12 ng/mL hTNFα to induce expression of 11β-HSD1; endogenous in cells; host or cells: primary human aortic smooth muscle cells (AoSMC), induced with hTNFα
Method: Human Aortic Smooth Muscle Cell Assay
Primary human aortic smooth muscle cells (AoSMC) are cultured in 5% FBS growth medium to a passage number of 6, then pelleted by centrifugation and resuspended at a density of 9×10^4 cells/mL in 0.5% FBS assay medium containing 12 ng/mL hTNFα to induce expression of 11β-HSD1. Cells are seeded into 96-well tissue culture assay plates at 100 μL/well (9×10^3 cells/well) and incubated for 48 hours at 37° C., 5% CO2. Following induction, cells are incubated for 4 hours at 37° C., 5% CO2 in assay medium containing test compounds then treated with 10 μL/well of 10 μM cortisone solubilized in assay medium, and incubated for 16 hours at 37° C., 5% CO2. Medium from each well is transferred to a plate for subsequent analysis of cortisol using a competitive fluorescence resonance time resolved immunoassay. […] Higher levels of free cortisol result in diminishing energy transfer from the Europium-IgG to the APC-cortisol complex resulting in less APC fluorescence. Fluorescent intensities for Europium and APC are measured using a LJL Analyst AD. Europium and APC […] is measured using 360 nm excitation and 615 nm and 650 nm emission filters respectively. […] Fluorescent intensities measured for APC are modified by dividing by the Eu fluorescence (APC/Eu). […]

[3] = test system: cortisone conversion to cortisol (11β-HSD1); assay: Acute In Vivo Cortisone Conversion Assay; parameters: species or system male C57BL/6 mice; details: mice, oral dose 10 mg/kg, cortisone challenge s.c. 30 mg/kg, 16 hours post compound dose, serum cortisol
Method: Acute In Vivo Cortisone Conversion Assay
In general, compounds are dosed orally into mice, the mice are challenged with a subcutaneous injection of cortisone at a set timepoint after compound injection, and the blood of each animal is collected some time later. Separated serum is then isolated and analyzed for levels of cortisone and cortisol by LC-MS/MS, followed by calculation of mean cortisol and percent inhibition of each dosing group. Specifically, male C57BL/6 mice are obtained from Harlan Sprague Dawley at average weight of 25 grams. Exact weights are taken upon arrival and the mice randomized into groups of similar weights. Compounds are prepared in 1% w-w HEC, 0.25% w-w polysorbate 80, 0.05% w-w Dow Corning antifoam #1510-US at various doses based on assumed average weight of 25 grams. Compounds are dosed orally, 200 μl per animal, followed by a subcutaneous dose, 200 μl per animal, of 30 mg/kg cortisone at 1 to 24 hours post compound dose. At 10 minutes post cortisone challenge, each animal is euthanized for 1 minute in a CO2 chamber, followed by blood collection via cardiac puncture into serum separator tubes. Once fully clotted, tubes are spun at 2500×g, 4° C. for 15 minutes, the serum transferred to wells of 96-well plates (Corning Inc, Costar #4410, cluster tubes, 1.2 ml, polypropylene), and the plates are frozen at −20° C. until analysis by LC-MS/MS. […]

Chain of recombinant human 11β-HSD type 1 enzyme (P28845 whole entry): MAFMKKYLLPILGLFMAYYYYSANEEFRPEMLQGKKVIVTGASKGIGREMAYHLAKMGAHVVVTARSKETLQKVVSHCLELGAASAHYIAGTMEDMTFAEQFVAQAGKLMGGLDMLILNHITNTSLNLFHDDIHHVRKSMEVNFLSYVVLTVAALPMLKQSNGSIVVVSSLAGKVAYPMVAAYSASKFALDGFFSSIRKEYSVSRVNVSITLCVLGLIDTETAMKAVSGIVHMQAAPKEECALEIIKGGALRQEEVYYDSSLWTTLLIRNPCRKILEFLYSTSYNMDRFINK
T1 sequence (P28845 whole entry): as above

IC50 [1] | IC50 [2] | SMILES | % Inhibition after 16 hours (dose of 10 (mg/kg)) [3]
584 nM | 5.5 nM | O=C(c1ccc(-c2cc(Cl)c(C[C@@H]3CCN([C@H]4CC[C@@H](F)CC4)C3=O)c(Cl)c2)cc1)N1CCC(C(F)(F)F)CC1 [Example 9, (R)-3-[3,5-Dichloro-4′-(4-trifluoromethyl-piperidine-1-carbonyl)-biphenyl-4-ylmethyl]-cis-1-(4-fluoro-cyclohexyl)-pyrrolidin-2-one] | –
382 nM | – | O=C(c1ccc(-c2cc(Cl)c(C[C@@H]3CCN(C4CCC(F)(F)CC4)C3=O)c(Cl)c2)cc1)N1CCS(=O)(=O)CC1 [Example 4, (R)-3-[3,5-Dichloro-4′-(1,1-dioxo-1lamda*6*-thiomorpholine-4-carbonyl)-biphenyl-4-ylmethyl]-1-(4,4-difluoro-cyclohexyl)-pyrrolidin-2-one] | 50.2%
686 nM | 55.1 nM | O=C(c1ccc(-c2cc(Cl)c(C[C@@H]3CCN(C4CCC(F)(F)CC4)C3=O)c(Cl)c2)cc1)N1CCC(C(F)(F)F)CC1 [Example 3, (R)-3-[3,5-Dichloro-4′-(4-trifluoromethyl-piperidine-1-carbonyl)-biphenyl-4-ylmethyl]-1-(4,4-difluoro-cyclohexyl)-pyrrolidin-2-one] | 60.7%
